Values after ≈ are worked out from the molar mass of the structure shown. Read-outs that look alike come from different tables or passages of the source. Blank lines part the entries; values can stand above or below the molecule they belong to.
Tests used:
[1] = Thermodynamic solubility in PBS; type: physicochemical; details: for Solubility: PBS (pH 7.5), concentration after 90 min of vortexing, ND: not detected; for fold more soluble than Cact-3: PBS solubility vs Cact-3
human wild-type CFTR = human wild-type CFTR (Homo sapiens, UniProt P13569); assay: YFP fluorescence quenching assay of CFTR channel activity; type: cell-based; details: for fold less potent than Cact-3: YFP EC50 vs Cact-3
[2] = type: in vivo, New Zealand White Rabbit; details: rabbit; for AUC0-24 / AUC0-inf / AUC0-last: 0.1 mg/eye
intracellular cAMP = assay: Intracellular cAMP measurement in CHO-K1 cells; type: cell-based; details: 30 μM, 10 min, IBMX 100 μM, compared to the control
human ANO1 = target: T1, human ANO1 (Homo sapiens, UniProt Q5XXA6); assay: ANO1 apical membrane current in FRT cells expressing human ANO1; type: cell-based; details: 16d 30 μM, Ani9 10 μM; ANO1 activated by 100 μM ATP
T1 sequence (Q5XXA6 1-986): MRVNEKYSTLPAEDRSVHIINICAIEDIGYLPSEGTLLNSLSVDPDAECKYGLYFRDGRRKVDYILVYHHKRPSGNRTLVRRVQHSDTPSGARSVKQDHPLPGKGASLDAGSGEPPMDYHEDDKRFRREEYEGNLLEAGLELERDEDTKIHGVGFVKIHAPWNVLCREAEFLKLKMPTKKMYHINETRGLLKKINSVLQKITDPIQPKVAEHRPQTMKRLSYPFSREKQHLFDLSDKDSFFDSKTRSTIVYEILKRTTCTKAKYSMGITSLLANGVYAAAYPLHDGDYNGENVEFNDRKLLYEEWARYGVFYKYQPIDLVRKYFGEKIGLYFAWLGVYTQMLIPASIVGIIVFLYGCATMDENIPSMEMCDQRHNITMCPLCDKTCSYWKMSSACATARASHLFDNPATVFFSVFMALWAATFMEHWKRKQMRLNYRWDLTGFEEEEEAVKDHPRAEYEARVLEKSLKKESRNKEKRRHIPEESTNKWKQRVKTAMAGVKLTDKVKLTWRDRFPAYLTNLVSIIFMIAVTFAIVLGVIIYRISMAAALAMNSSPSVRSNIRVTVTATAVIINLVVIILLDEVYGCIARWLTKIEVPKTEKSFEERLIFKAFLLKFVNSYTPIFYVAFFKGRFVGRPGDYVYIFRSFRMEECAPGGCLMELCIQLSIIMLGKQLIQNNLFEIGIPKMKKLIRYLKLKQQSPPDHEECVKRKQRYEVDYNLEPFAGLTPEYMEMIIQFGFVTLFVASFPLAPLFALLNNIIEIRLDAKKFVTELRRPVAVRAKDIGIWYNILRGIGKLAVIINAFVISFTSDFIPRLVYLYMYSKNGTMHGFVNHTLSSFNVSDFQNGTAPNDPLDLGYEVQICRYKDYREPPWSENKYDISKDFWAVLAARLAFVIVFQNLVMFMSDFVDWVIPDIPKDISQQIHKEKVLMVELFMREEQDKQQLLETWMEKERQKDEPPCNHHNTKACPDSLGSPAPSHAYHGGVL

[3] = system: scopolamine-induced dry eye mouse model; assay: Tear volume in scopolamine-induced dry eye mouse model; type: in vivo; details: DED mice; 5 μL eye drops three times a day for 10 days; 16d 2060 μM, 0.3% diquafosol sodium
[4] = system: normal female C57BL/6J mice; assay: Tear volume in normal mice; type: in vivo, mouse; details: for effect on tear volume: 16d up to 1 mM, Cact-3 up to 72 μM
[5] = Maximum solubility for eye drop administration; type: physicochemical
[6] = system: volume-regulated anion channel (VRAC); assay: VRAC activity by YFP fluorescence quenching assay; type: cell-based; details: 16d 30 μM, VI-116 10 μM; hypotonic solution 5 min
MMP-2 mRNA = details: mouse, in vivo
[7] = system: corneal epithelial (CorE) cells; assay: Corneal epithelial cytotoxicity test; type: cell-based, human; details: 30 μM, 48 h, MTS assay
[8] = system: scopolamine-induced dry eye mouse model; assay: Corneal erosion grading in scopolamine-induced dry eye mouse model; type: in vivo; details: DED mice; 16d 2060 μM three times a day for 10 days; compared to control group
IL-17 mRNA = details: mouse, in vivo
TNF-α mRNA = details: mouse, in vivo
IL-1β mRNA = details: mouse, in vivo
[9] = system: conjunctival epithelial (ConjE) cells; assay: Conjunctival epithelial cytotoxicity test; type: cell-based, human; details: 30 μM, 48 h, MTS assay
human CFTR [10] = target: T2, human CFTR (Homo sapiens, UniProt P13569); assay: Apical membrane current in FRT cells expressing human CFTR; type: cell-based; details: 10 μM CFTRinh-172
human CFTR [11] = target: T2, human CFTR; details: 20 μM CFTRinh-172; CHO-K1 cells expressing human CFTR
endogenous CFTR channels = endogenous CFTR channels (Homo sapiens, UniProt P13569); details: 10 μM CFTRinh-172; primary cultured human conjunctival epithelial cells
endogenous CFTR channels, sequence (P13569 whole entry): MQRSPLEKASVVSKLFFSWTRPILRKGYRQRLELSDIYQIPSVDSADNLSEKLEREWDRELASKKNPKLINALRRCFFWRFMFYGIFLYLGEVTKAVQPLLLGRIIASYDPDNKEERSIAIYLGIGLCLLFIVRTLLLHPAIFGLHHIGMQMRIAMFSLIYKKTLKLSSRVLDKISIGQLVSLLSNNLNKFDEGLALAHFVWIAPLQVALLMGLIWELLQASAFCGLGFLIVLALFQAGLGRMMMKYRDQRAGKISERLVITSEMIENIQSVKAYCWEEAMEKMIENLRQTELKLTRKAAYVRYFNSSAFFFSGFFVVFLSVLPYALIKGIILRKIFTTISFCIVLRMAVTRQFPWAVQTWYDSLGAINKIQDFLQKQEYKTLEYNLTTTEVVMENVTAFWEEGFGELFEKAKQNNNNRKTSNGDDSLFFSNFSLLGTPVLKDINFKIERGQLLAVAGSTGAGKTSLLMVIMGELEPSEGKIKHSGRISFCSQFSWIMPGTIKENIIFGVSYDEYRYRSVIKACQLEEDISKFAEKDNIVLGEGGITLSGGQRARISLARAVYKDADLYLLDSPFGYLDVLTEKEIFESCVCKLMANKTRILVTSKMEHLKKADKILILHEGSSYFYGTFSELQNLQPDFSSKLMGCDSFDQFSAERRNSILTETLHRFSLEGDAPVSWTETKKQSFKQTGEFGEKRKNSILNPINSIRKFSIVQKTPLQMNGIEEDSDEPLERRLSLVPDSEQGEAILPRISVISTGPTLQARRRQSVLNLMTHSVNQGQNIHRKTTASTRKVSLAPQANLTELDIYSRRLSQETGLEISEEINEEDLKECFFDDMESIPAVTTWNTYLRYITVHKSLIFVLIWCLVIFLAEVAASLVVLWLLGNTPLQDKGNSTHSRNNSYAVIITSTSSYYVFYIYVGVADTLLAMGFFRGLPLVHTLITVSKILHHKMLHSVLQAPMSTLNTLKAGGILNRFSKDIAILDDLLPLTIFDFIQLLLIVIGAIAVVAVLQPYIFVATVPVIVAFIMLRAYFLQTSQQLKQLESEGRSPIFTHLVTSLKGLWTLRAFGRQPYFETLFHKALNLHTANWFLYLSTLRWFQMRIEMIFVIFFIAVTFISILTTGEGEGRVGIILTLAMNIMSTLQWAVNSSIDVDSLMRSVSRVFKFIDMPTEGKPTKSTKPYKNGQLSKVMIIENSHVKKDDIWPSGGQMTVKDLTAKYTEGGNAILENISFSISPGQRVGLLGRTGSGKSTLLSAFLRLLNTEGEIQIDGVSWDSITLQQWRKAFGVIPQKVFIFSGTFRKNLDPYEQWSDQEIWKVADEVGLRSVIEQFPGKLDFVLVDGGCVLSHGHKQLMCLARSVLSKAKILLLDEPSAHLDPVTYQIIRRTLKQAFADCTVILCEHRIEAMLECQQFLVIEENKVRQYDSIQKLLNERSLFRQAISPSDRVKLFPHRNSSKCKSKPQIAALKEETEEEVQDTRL

human wild-type CFTR, sequence (P13569 whole entry): as above
T2 sequence (P13569 whole entry): as above

Compound: COc1ccc(-c2ccnc3cc(C(=O)Nc4ccc(OCCN5CCOCC5)cc4)nn23)cc1OC [5e, 7-(3,4-Dimethoxyphenyl)-N-(4-(2-morpholinoethoxy)phenyl)pyrazolo[1,5-a]pyrimidine-2-carboxamide]
Solubility [1]: completely insoluble

Compound: COc1ccc(-c2ccnc3cc(C(=O)Nc4ccc(N5CCOCC5)cc4)nn23)cc1OC [5f, 7-(3,4-Dimethoxyphenyl)-N-(4-morpholinophenyl)pyrazolo[1,5-a]pyrimidine-2-carboxamide]
Solubility [1]: completely insoluble

Compound: COC(=O)c1ccc(CNC(=O)c2cc3nccc(-c4ccc(OC)c(OC)c4)n3n2)cc1 [5g, Methyl 4-((7-(3,4-dimethoxyphenyl)pyrazolo[1,5-a]pyrimidine-2-carboxamido)methyl)benzoate]
fold less potent than 5d (human wild-type CFTR; YFP EC50 vs 5d): 34 fold

Compound: COc1ccc(-c2ccnc3cc(C(=O)NCc4ccc(N5CCOCC5)cc4)nn23)cc1OC [5h, 7-(3,4-Dimethoxyphenyl)-N-(4-morpholinobenzyl)pyrazolo[1,5-a]pyrimidine-2-carboxamide]
fold less potent than 5f (human wild-type CFTR; YFP EC50 vs 5f): 101 fold

Compound: O=C(O)c1ccc(/C=C2\SC(=S)N(c3cccc(C(F)(F)F)c3)C2=O)cc1 [CFTRinh-172]
block of 16d-induced CFTR chloride current (human CFTR [10]): completely blocked
inhibition of 16d-induced CFTR whole-cell currents (human CFTR [11]): completely inhibited
inhibition of 16d-induced CFTR current (short-circuit current) (endogenous CFTR channels): fully inhibited

Compound: CCOc1ccc(NC(=O)c2cc3nccc(-c4ccc(OC)c(OC)c4)n3n2)cc1 [compound 1, 7-(3,4-Dimethoxyphenyl)-N-(4-ethoxyphenyl)pyrazolo[1,5-a]pyrimidine-2-carboxamide]
solubility at 90 min ([1]; PBS, pH 7.5): 0.059 µM (≈ 0.0247 µg/mL)
time of maximal tear volume after administration ([4]; 2.5 μL eye drops, once): 3 h
effect on tear volume [4]: dose-dependent increase
Solubility [5]: 72 µM (≈ 30.1 µg/mL)

Compound: O=c1ccn([C@@H]2O[C@H](COP(=O)(O)OP(=O)(O)OP(=O)(O)OP(=O)(O)OC[C@H]3O[C@@H](n4ccc(=O)[nH]c4=O)[C@H](O)[C@@H]3O)[C@@H](O)[C@H]2O)c(=O)[nH]1 [diquafosol, reference compound]
effect on scopolamine-induced tear volume decrease [3]: significant recovery
mRNA expression level of MMP-2 (MMP-2 mRNA): significantly reduced
mRNA expression level of IL-17 (IL-17 mRNA): significantly reduced
mRNA expression level of TNF-α (TNF-α mRNA): significantly reduced

Now from value to molecule, other results behind:

fold less potent than Cact-3 (human wild-type CFTR): 17 fold
fold more soluble than Cact-3 [1]: 88 fold
Compound: COc1ccc(-c2ccnc3cc(C(=O)Nc4ccc(C(=O)O)cc4)nn23)cc1OC [9a, 4-(7-(3,4-Dimethoxyphenyl)pyrazolo[1,5-a]pyrimidine-2-carboxamido)benzoic Acid]

times more potent than 9a (human wild-type CFTR; YFP EC50 vs 9a): 7 times
solubility/YFP ratio, fold less than 9a ([1]; vs 9a): 2 fold
Compound: COc1ccc(-c2ccnc3cc(C(=O)Nc4ccc(C(=O)O)cc4F)nn23)cc1OC [9b, 4-(7-(3,4-Dimethoxyphenyl)pyrazolo[1,5-a]pyrimidine-2-carboxamido)-3-fluorobenzoic Acid]

Solubility [1]: completely insoluble
Compound: COc1ccc(-c2ccnc3cc(C(=O)Nc4ccc(C(=O)N5CCOCC5)cc4)nn23)cc1OC [10a, 7-(3,4-Dimethoxyphenyl)-N-(4-(morpholine-4-carbonyl)phenyl)pyrazolo[1,5-a]pyrimidine-2-carboxamide]

fold more potent than 11a (human wild-type CFTR; YFP EC50 vs 11a): 13 fold
fold less potent than Cact-3 (human wild-type CFTR): 16 fold
fold more soluble than Cact-3 [1]: 4017 fold
Compound: COc1ccc(-c2ccnc3cc(C(=O)Nc4ccc(C(=O)N5CCN(C)CC5)cc4)nn23)cc1OC.Cl [11c, 7-(3,4-Dimethoxyphenyl)-N-(4-(4-methylpiperazine-1-carbonyl)phenyl)pyrazolo[1,5-a]pyrimidine-2-carboxamide Hydrochloride]

fold more potent than 16a (human wild-type CFTR; YFP EC50 vs 16a): 7 fold
Compound: COc1ccc(-c2ccnc3cc(C(=O)N4CCN(C(=O)c5ccccc5)CC4)nn23)cc1OC [16b, (4-Benzoylpiperazin-1-yl)(7-(3,4-dimethoxyphenyl)pyrazolo[1,5-a]pyrimidin-2-yl)methanone]

AUC0-24 ([2]; mean conjunctiva): 4734.0 ng·h/mL or ng·h/g
AUC0-inf ([2]; mean conjunctiva): 13741.0 ng·h/mL or ng·h/g
AUC0-last ([2]; mean conjunctiva): 9819.0 ng·h/mL or ng·h/g
AUC0-24 ([2]; mean cornea): 19409.0 ng·h/mL or ng·h/g
AUC0-inf ([2]; mean cornea): 35802.0 ng·h/mL or ng·h/g
AUC0-last ([2]; mean cornea): 28349.0 ng·h/mL or ng·h/g
period maintained in cornea and conjunctiva ([2]; cornea and conjunctiva): > 8 h
effect on ANO1 channel activity (human ANO1): did not affect
Solubility [5]: > 2000 µM
Compound: COc1ccc(-c2ccnc3cc(C(=O)N4CCN(C(=O)c5ccccc5)[C@@H](C)C4)nn23)cc1OC [16d, (S)-(4-Benzoyl-3-methylpiperazin-1-yl)(7-(3,4-dimethoxyphenyl)pyrazolo[1,5-a]pyrimidin-2-yl)methanone]
adverse effects during the PK study ([2]; topical ocular administration 0.1 mg/eye): No adverse effects
effect on intracellular cAMP level (intracellular cAMP): slightly increased
effect on scopolamine-induced tear volume decrease [3]: significantly and almost completely restored
Emax (tear volume) [4]: higher than Cact-3
effect on tear volume [4]: dose-dependent increase
effect on VRAC channel activity [6]: did not affect
mRNA expression level of MMP-2 (MMP-2 mRNA): significantly decreased
effect on cell viability of CorE [7]: did not affect
effect on corneal erosion [8]: significantly reduced
mRNA expression level of IL-17 (IL-17 mRNA): significantly decreased
mRNA expression level of TNF-α (TNF-α mRNA): significantly decreased
mRNA expression level of IL-1β (IL-1β mRNA): significantly decreased
effect on cell viability of ConjE [9]: did not affect

— paper PMC9841530 (Journal of Medicinal Chemistry, 2022)
